According to patent US11365181B2, “P-phenylenediamine derivative as potassium channel regulator and preparation method and medical application thereof” (Shanghai Zhimeng Biopharma, Inc., priority 2018, dated 2022):

Experiments:
[1] = molecular target: KCNQ2 potassium channel (CHO-KCNQ2 cells) (Homo sapiens (Human), UniProt O43526); assay: Activity test of potassium ion channel opener (FDSS/μCELL detection, FluxOR potassium ion channel assay); type: cell-based; conditions: CHO-KCNQ2 cells, FluxOR fluorescence, FDSS/μCELL
Sequence of KCNQ2 potassium channel (CHO-KCNQ2 cells) (O43526 whole entry): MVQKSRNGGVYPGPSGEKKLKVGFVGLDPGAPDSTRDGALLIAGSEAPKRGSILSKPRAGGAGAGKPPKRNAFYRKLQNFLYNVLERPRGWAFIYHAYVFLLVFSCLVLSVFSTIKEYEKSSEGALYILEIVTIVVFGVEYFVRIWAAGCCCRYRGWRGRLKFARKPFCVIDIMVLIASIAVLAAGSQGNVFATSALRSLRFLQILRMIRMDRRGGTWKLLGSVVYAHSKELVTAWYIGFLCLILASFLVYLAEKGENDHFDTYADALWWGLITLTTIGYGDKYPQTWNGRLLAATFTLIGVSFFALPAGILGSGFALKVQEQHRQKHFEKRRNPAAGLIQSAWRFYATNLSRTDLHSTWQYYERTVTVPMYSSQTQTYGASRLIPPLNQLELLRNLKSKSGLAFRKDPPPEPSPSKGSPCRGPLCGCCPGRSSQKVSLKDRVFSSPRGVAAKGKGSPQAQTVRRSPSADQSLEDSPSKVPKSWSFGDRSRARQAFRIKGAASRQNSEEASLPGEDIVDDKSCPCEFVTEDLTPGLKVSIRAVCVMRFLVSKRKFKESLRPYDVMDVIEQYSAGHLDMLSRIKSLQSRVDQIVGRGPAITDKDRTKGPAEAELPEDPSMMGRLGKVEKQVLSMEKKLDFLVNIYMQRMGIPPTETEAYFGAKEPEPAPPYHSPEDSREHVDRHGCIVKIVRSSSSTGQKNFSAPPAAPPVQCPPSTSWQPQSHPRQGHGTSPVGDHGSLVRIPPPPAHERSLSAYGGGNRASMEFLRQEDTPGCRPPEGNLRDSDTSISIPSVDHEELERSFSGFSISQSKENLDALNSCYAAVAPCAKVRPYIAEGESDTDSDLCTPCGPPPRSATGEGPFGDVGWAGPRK
Method: Activity Test of Potassium Ion Channel Opener (FDSS/ρCELL Detection)
Cell preparation: CHO-KCNQ2 cells were cultured in a 175 cm^2 culture flask, and when the cells was grown to a density of 60-80%, the culture medium was removed, washed with 7 mL PBS (Phosphate Buffered Saline) once, then 3 mL 0.25% Trypsin was added to digest. After the digestion was completed, 7 mL culture medium (90% DMEM/F12+10% FBS+500 μg/mL G418) was added to neutralize, centrifugated for 3 minutes at 800 rpm. The supernatant was aspirated, then 5 mL culture medium was added to resuspend, and then the cells were counted.
Cell plating: The density to 3×10^4/well was adjusted according to the results of cell counting. After standing at room temperature for 30 minutes, the cells were placed in a 37° C. CO2 incubator and incubated overnight for 16-18 hours. The cell density reached about 80%.
Fluorescent dye incubation: The cell culture medium was discarded, 80 μL/well loading buffer was added, and the cells were incubated in dark at room temperature for 60 minutes.
Compound incubation: the loading buffer was discarded, 80 μL/well prepared compound solution was added, incubated at room temperature and in dark for 20 minutes.
Fluorescence data collection: FDSS/μCELL instrument for real-time fluorescence is used for signal recording, wherein excitation wavelength was 480 nm, emission wavelength was 540 nm, and signals were recorded 1 times per second, after baseline was recorded for 10 seconds, the addition of 20 μL/well stimulation buffer was started, and then the signal was continuously record until the end of 180 seconds.
loading buffer: 10 mL/plate, the preparation method was as follows:
Test buffer sample: 100 mL/plate, the preparation method was as follows:
Stimulation buffer: 5 mL/plate, the preparation method was as follows:
The above buffer was from a commercially available kit, the kit name was FluxOR potassium ion channel assay, the manufacturer's brand was Invitrogen, the article number was F10017, the lot number was 913728.
20 mM DMSO compound mother liquor was prepared, 10 μL of 20 mM compound mother liquor was took and added into 20 μL DMSO solution, serially diluted 3 times to 8 intermediate concentrations; then the middle concentration of the compound was took to the test buffer, 200 times dilution to get the final concentration to be tested, 80 μL was took and added to the test plate.
The highest test concentration was 100 μM, followed by […], 33.33, 11.11, 3.70, 1.23, 0.41, 0.137, 0.045 μM, total 8 concentrations. Each concentration 3 replicate holes.
This concentration of DMSO had no effect on the KCNQ2 potassium channel.
Experimental data was analyzed by Excel 2007 and GraphPad Prism 5.0 software, and the ratio of 180 seconds was calculated to calculate the excitement effect. The excitement effect of the compound is calculated by the following formula: […]
Environment: Temperature about 25° C.
Reagent: FluxOR™ Detection Kit (Invitrogen, Cat #[…])
The experimental data in the report might meet the following criteria: Z′ Factor>0.5
2. Determination Results: See Table 1 for Details, where the Smaller EC50 was, the Higher the Activity of the Corresponding Compound was.
References for the above test methods:
(2) Jinfeng Yue et al. Acta Pharmacologica Sinica, 2016, 37:105-110.

[2] = Cerebral blood ratio of compound A in previous studies; type: in vivo; conditions: brain/blood
Excerpt: It can be seen from the results in Table 4 that after oral administration of compounds 03043 and 03044 to male SD rats, they have a good cerebral blood ratio (1.0-2.4) at each time point.

EC50 [1]: 65 nM
Kp at 2 h ([2]; at 2 h): 0.56
Kp at 4 h ([2]; at 4 h): 0.46
Kp ([2]; overall): ~0.5
Structure (SMILES): Cc1cc(N2CCc3sc(Cl)cc3C2)cc(C)c1NC(=O)CC(C)(C)C [Compound A]
